Laboratory results as given in patent US20240391931A1 (Bristol-Myers Squibb Company, priority 2021, published 2024).
pEC50: −log10 of the molar value.

Columns and labels:
EGFR = EGFR (Homo sapiens, UniProt P00533); assay: EGFR signaling (pEGFR Tyr1068/total EGFR MSD) in A431 cells; format: cell-based; design: endogenous in cells; host or cells: A431, N87; details: for pEC50: A431 cells, read-out: A431 pEGFR EC50; for Selectivity A431 EC50/BT474 EC50: ratio A431 pEGFR EC50 to BT474 pHER2 EC50; for Selectivity A431 EC50/HEKYVMA EC50: ratio A431 pEGFR EC50 to HEK YVMA pHER2 EC50
Method in brief: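 EC50 was fitted with variable Hill slope from MSD pTyr1068/total EGFR ratios, expressed as % DMSO control. A431 cells were starved overnight, then exposed 1.5 h to eight concentrations from 10 to 0.005 μM in 1% FBS before a 10-min 100 ng/mL EGF pulse.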

HER2YVMA = HER2YVMA (Homo sapiens, UniProt P04626, INS775YVMA); assay: HER2 signaling (pHER2) in Hek293-HER2YVMA cells; format: cell-based; design: expressed in transfected cells; host or cells: HEK293 (pool), Ba/F3 (clones), BEAS2B (clones); lentiviral vector pCDH-CMV-MCS-EF1-Neo; details: 1.5 hr compound, 1% FBS, read-out: HEKYVMA pHER2 EC50
Method in brief: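 Lentivirally transduced HER2YVMA lines (HEK293 pool; BEAS2B clone) treated 1.5 h at 37 °C in 1% FBS medium with compound at 0.0005–1.1 μM. Lysates read by MSD immunoassay for pHER2 (Tyr1248) normalized to total HER2, as % DMSO control; EC50 from variable-slope sigmoidal fit.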

Chain of EGFR (P00533 25-1210): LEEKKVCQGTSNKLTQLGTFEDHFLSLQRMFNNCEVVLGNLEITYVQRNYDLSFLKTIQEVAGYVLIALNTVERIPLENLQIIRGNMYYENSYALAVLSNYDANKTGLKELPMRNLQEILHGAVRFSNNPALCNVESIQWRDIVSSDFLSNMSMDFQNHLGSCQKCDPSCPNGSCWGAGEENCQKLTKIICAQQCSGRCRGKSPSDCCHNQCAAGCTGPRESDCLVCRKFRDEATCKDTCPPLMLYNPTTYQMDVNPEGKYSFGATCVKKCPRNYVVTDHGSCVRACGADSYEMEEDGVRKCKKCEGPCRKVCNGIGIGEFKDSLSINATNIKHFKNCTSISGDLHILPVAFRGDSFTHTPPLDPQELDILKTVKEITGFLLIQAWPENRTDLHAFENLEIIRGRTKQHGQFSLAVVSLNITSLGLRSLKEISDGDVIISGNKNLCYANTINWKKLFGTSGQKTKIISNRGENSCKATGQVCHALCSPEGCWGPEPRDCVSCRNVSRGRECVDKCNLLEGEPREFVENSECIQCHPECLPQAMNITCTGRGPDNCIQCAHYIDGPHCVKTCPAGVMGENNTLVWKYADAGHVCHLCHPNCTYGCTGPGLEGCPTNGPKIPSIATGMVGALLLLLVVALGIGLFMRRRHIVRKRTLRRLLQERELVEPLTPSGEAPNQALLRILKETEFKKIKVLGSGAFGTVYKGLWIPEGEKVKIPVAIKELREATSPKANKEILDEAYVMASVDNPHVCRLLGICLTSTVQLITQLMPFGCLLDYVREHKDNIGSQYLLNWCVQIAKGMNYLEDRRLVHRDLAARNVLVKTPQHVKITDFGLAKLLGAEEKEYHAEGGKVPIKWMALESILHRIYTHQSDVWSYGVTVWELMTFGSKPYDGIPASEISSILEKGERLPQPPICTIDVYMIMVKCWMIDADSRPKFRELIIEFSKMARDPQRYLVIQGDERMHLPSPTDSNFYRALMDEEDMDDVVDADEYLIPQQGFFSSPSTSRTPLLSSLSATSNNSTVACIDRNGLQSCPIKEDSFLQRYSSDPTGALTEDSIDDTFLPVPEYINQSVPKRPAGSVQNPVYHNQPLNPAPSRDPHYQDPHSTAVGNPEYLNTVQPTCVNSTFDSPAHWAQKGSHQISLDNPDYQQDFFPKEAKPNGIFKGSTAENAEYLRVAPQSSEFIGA
Chain of HER2YVMA (P04626 with tags, fused parts or gaps INS775YVMA): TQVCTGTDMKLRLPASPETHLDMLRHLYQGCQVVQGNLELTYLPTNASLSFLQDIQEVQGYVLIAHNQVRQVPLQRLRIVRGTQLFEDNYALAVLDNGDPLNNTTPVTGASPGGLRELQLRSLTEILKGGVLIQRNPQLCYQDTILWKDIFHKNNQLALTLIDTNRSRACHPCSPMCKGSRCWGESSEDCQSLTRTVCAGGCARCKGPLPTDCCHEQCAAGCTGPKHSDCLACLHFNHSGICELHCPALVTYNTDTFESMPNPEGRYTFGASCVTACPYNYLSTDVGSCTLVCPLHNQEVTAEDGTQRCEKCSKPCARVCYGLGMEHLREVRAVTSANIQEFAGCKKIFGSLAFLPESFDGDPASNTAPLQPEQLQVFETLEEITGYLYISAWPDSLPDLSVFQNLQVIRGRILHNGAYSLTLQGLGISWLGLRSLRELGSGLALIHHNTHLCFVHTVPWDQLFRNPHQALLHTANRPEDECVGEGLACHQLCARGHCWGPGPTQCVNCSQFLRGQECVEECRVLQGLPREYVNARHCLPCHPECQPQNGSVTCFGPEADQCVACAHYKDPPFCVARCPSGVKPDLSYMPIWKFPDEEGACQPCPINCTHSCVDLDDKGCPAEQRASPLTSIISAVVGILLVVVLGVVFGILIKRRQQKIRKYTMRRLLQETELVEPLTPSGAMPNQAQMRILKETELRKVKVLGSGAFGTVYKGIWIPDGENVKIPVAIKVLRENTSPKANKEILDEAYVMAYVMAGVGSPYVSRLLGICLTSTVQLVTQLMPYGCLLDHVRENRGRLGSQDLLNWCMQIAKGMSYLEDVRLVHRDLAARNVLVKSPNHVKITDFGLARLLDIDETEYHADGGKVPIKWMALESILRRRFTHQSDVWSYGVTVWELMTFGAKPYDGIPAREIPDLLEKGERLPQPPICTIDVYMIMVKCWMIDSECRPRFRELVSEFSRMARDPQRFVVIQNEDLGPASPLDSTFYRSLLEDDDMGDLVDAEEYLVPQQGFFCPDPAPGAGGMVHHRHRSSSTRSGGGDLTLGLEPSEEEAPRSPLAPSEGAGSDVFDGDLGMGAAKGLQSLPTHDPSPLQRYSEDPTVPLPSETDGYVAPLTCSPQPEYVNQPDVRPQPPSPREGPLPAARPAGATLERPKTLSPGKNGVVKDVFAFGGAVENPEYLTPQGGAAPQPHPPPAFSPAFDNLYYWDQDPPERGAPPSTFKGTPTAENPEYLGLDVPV

SMILES	pEC50 (EGFR)	Selectivity A431 EC50/BT474 EC50 (EGFR)	Selectivity A431 EC50/HEKYVMA EC50 (EGFR)	pEC50 (HER2YVMA)
C=CC(=O)N1CCc2[nH]c3ncnc(Nc4ccc(Oc5ccc(C)nc5)c(C)c4)c3c2C1 [Compound 94, 1-(4-((3-methyl-4-((6-methylpyridin-3-yl)oxy)phenyl)amino)-7,8-dihydro-5H-pyrido[3′,4′:4,5]pyrrolo[2,3-d]pyrimidin-6(9H)-yl)prop-2-en-1-one]	6.00 to 7.00	C (C: ≥ 10 and < 20)	E (E: >1 and < 5)	> 7.00
COc1ccc(Oc2ccc(Nc3ncnc4sc5c(c34)CCN(C(=O)/C=C/CN(C)C)C5)cc2C)cn1 [Compound 95, (E)-4-(Dimethylamino)-1-(4-((4-((6-methoxypyridin-3-yl)oxy)-3-methylphenyl)amino)-5,6-dihydropyrido[4′,3′:4,5]thieno[2,3-d]pyrimidin-7(8H)-yl)but-2-en-1-one]	6.00 to 7.00	D (D: ≥ 5 and < 10)	C (C: ≥ 10 and < 20)	> 7.00
CCOC/C=C/C(=O)N1CCc2c(sc3ncnc(Nc4ccc(Oc5ccc(C)nc5)c(C)c4)c23)C1 [Compound 96, (E)-4-ethoxy-1-(4-((3-methyl-4-((6-methylpyridin-3-yl)oxy)phenyl)amino)-5,8-dihydropyrido[4′,3′:4,5]thieno[2,3-d]pyrimidin-7(6H)-yl)but-2-en-1-one]	6.00 to 7.00	C (C: ≥ 10 and < 20)	D (D: ≥ 5 and < 10)	> 7.00
Cc1ccc(Oc2ccc(Nc3ncnc4[nH]c5c(c34)CN(C(=O)/C=C/CN(C)C)CC5)cc2C)cn1 [Compound 97, (E)-4-(dimethylamino)-1-(4-((3-methyl-4-((6-methylpyridin-3-yl)oxy)phenyl)amino)-5,7,8,9-tetrahydro-6H-pyrido[3′,4′:4,5]pyrrolo[2,3-d]pyrimidin-6-yl)but-2-en-1-one]	6.00 to 7.00	B (B: ≥ 20 and < 100)	E (E: >1 and < 5)	6.46 to 7.00
Cc1ccc(Oc2ccc(Nc3ncnc4sc5c(c34)C(C)CN(C(=O)/C=C/CN(C)C)C5)cc2C)cn1 (stereo not drawn) [Compound 98, (E)-4-(dimethylamino)-1-(5-methyl-4-((3-methyl-4-((6-methylpyridin-3-yl)oxy)phenyl)amino)-5,8-dihydropyrido[4′,3′:4,5]thieno[2,3-d]pyrimidin-7(6H)-yl)but-2-en-1-one]	6.00 to 7.00	C (C: ≥ 10 and < 20)	D (D: ≥ 5 and < 10)	> 7.00
Cc1ccc(Oc2ccc(Nc3ncnc4sc5c(c34)CN(C(=O)/C=C/CN(C)C)C5)cc2C)cn1 [Compound 99, (E)-4-(dimethylamino)-1-(4-((3-methyl-4-((6-methylpyridin-3-yl)oxy)phenyl)amino)-5,7-dihydro-6H-pyrrolo[3′,4′:4,5]thieno[2,3-d]pyrimidin-6-yl)but-2-en-1-one]	6.00 to 7.00	B (B: ≥ 20 and < 100)	B (B: ≥ 20 and < 100)	> 7.00
Cc1ccc(Oc2ccc(Nc3ncnc4sc5c(c34)CCN(C(=O)/C=C/CN(C)C)CC5)cc2C)cn1 [Compound 100, (E)-4-(dimethylamino)-1-(4-((3-methyl-4-((6-methylpyridin-3-yl)oxy)phenyl)amino)-8,9-dihydro-5H-pyrimido[5′,4′:4,5]thieno[2,3-d]azepin-7(6H)-yl)but-2-en-1-one]	6.00 to 7.00	B (B: ≥ 20 and < 100)	C (C: ≥ 10 and < 20)	> 7.00
Cc1ccc(Oc2ccc(Nc3ncnc4sc5c(c34)CCCN(C(=O)/C=C/CN(C)C)C5)cc2C)cn1 [Compound 101, (E)-4-(Dimethylamino)-1-(4-((3-methyl-4-((6-methylpyridin-3-yl)oxy)phenyl)amino)-6,7-dihydro-5H-pyrimido[5′,4′:4,5]thieno[2,3-c]azepin-8(9H)-yl)but-2-en-1-one]	6.00 to 7.00	C (C: ≥ 10 and < 20)	C (C: ≥ 10 and < 20)	> 7.00
C=CC(=O)N1CCc2[nH]c3ncnc(Nc4ccc(Oc5ccc6ncnn6c5)c(C)c4)c3c2C1 [Compound 102, 1-(4-((4-([1,2,4]triazolo[1,5-a]pyridin-6-yloxy)-3-methylphenyl)amino)-5,7,8,9-tetrahydro-6H-pyrido[3′,4′:4,5]pyrrolo[2,3-d]pyrimidin-6-yl)prop-2-en-1-one]	5.00 to 6.00	C (C: ≥ 10 and < 20)	C (C: ≥ 10 and < 20)	6.46 to 7.00
Cc1cc(Nc2ncnc3sc4c(c23)CN(C(=O)/C=C/CN(C)C)CC4)ccc1Oc1ccc2ncnn2c1 [Compound 103, (E)-1-(4-((4-([1,2,4]triazolo[1,5-a]pyridin-6-yloxy)-3-methylphenyl)amino)-7,8-dihydropyrido[3′,4′:4,5]thieno[2,3-d]pyrimidin-6(5H)-yl)-4-(dimethylamino)but-2-en-1-one]	6.00 to 7.00	B (B: ≥ 20 and < 100)	B (B: ≥ 20 and < 100)	> 7.00

Continued, values first:

pEC50 (EGFR)	Selectivity A431 EC50/BT474 EC50 (EGFR)	Selectivity A431 EC50/HEKYVMA EC50 (EGFR)	pEC50 (HER2YVMA)	SMILES
> 7.00	B (B: ≥ 20 and < 100)	D (D: ≥ 5 and < 10)	> 7.00	O=C(/C=C/CN1CC2CC1CO2)N1CCc2c(sc3ncnc(Nc4ccc(Oc5ccc6ncnn6c5)c(Cl)c4)c23)C1 (stereo not drawn) [Compound 87]
> 7.00	C (C: ≥ 10 and < 20)	C (C: ≥ 10 and < 20)	> 7.00	O=C(/C=C/CN1CC2CCC(C2)C1)N1CCc2c(sc3ncnc(Nc4ccc(Oc5ccc6ncnn6c5)c(Cl)c4)c23)C1 [Compound 88]
> 7.00	C (C: ≥ 10 and < 20)	D (D: ≥ 5 and < 10)	> 7.00	CN(C/C=C/C(=O)N1CCc2c(sc3ncnc(Nc4ccc(Oc5ccc6ncnn6c5)c(Cl)c4)c23)C1)C(C)(C)C [Compound 91]
> 7.00	C (C: ≥ 10 and < 20)	C (C: ≥ 10 and < 20)	> 7.00	O=C(/C=C/CN1CC2C(CO)C2C1)N1CCc2c(sc3ncnc(Nc4ccc(Oc5ccc6ncnn6c5)c(Cl)c4)c23)C1 (stereo not drawn) [Compound 92]
> 7.00	D (D: ≥ 5 and < 10)	D (D: ≥ 5 and < 10)	> 7.00	Cc1cc(Nc2ncnc3sc4c(c23)CCN(C(=O)/C=C/CN(C)C)C4)ccc1Oc1ccc2nonc2c1 [Compound 104, (E)-1-(4-((4-(Benzo[c][1,2,5]oxadiazol-5-yloxy)-3-methylphenyl)amino)-5,6-dihydropyrido[4′,3′:4,5]thieno[2,3-d]pyrimidin-7(8H)-yl)-4-(dimethylamino)but-2-en-1-one]
